# Source: patent US12428406B2 (PMV Pharmaceuticals, Inc., priority 2019, dated 2025)
# Biological target: T1, p53 Y220C (Homo sapiens, UniProt P04637, Y220C)
# T1 construct: The recombinant protein was a truncation mutant containing only amino acids 94-312 of p53; made in house; host or cells: E. coli
# Test: In vitro DNA binding activity assay (HTRF / TR-FRET): stabilization of p53 Y220C and increase of its DNA binding activity
# Format: biochemical
# Conditions: recombinant His-tagged p53 Y220C DNA binding domain (aa 94-312), biotin-labeled consensus DNA, incubated at 27° C. or 29° C. for 60 min
# Method in brief: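 Compound effect on DNA binding of recombinant His-p53 Y220C (E. coli) to biotin-labeled consensus DNA, expressed as SC150, the concentration giving 50% increase versus untreated. Serial 3-fold DMSO dilutions of 4.5 mM stocks; room-temperature steps of 15 then 20 min.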
# T1 sequence (P04637 94-312, change not shown): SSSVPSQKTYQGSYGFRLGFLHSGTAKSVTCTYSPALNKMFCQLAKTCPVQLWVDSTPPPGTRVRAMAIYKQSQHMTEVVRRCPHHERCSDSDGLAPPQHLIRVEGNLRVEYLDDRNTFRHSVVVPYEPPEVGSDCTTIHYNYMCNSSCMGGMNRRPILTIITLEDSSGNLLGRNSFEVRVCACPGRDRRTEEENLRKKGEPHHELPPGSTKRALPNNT
row,SMILES,SC150 (concentration of the compound required to increase the DNA binding activity by 50%)
1,"COc1cc(S(N)(=O)=O)ccc1NCC#Cc1cc2c(NC3CCN(CCOC(=O)C(C)C)CC3)cccc2n1CC(F)(F)F [Compound 600A, 2-{4-[(2-{3-[(2-methoxy-4-sulfamoylphenyl)amino]prop-1-yn-1-yl}-1-(2,2,2-trifluoroethyl)-1H-indol-4-yl)amino]piperidin-1-yl}EtOAc]",+ (+ = 0 μM ≤ SC150 < 0.05 μM)
2,"COc1cc(S(C)(=O)=O)ccc1NCC#Cc1cc2c(N(C)C)cccc2n1CC(F)(F)F [Compound 1A, 2-{3-[(4-methanesulfonyl-2-methoxyphenyl)amino]prop-1-yn-1-yl}-N,N-dimethyl-1-(2,2,2-trifluoroethyl)-1H-indol-4-amine]",+++ (+++ = 0.1 μM ≤ SC150 < 0.2 μM)
3,"CCOc1cc(S(C)(=O)=O)ccc1NCC#Cc1cc2c(N[C@H]3CC[C@H](N4CC5CC(C4)O5)CC3)cccc2n1CC(F)(F)F [Compound 404A, 2-{3-[(2-ethoxy-4-methanesulfonyl-phenyl)amino]prop-1-yn-1-yl}-N-[(1R,4R)-4-{6-oxa-3-azabicyclo[3.1.1]heptan-3-yl}cyclohexyl]-1-(2,2,2-trifluoroethyl)-1H-indol-4-amine]",+ (+ = 0 μM ≤ SC150 < 0.05 μM)
4,COCC(O)CNC(=O)c1ccc(NCC#Cc2cc3c(N[C@H]4CCN(C)C[C@H]4F)cccc3n2CC(F)(F)F)c(OC)c1 (mixture of isomers) [Compound 816A],+ (+ = 0 μM ≤ SC150 < 0.05 μM)
5,COc1cc(S(N)(=O)=O)ccc1NCC#Cc1cc2c(N[C@@H]3CCN(C[C@@H](O)CO)C[C@@H]3F)cccc2n1CC(F)(F)F [Compound 882A],+ (+ = 0 μM ≤ SC150 < 0.05 μM)
6,"CNC(=O)c1ccc(NCC#Cc2cc3c(N[C@H]4CC[C@@H](N(C)C)CC4)cccc3n2CC(F)(F)F)c(OC)c1 [Compound 75A, 3-methoxy-N-methyl-4-{[3-(4-{[(1S,4S)-4-(dimethylamino)cyclohexyl]amino}-1-(2,2,2-trifluoroethyl)-1H-indol-2-yl)prop-2-yn-1-yl]amino}benzamide]",++ (++ = 0.05 μM ≤ SC150 < 0.1 μM)
7,"COc1cc(S(=O)(=O)NC(C)=O)ccc1NCC#Cc1cc2c(N[C@H]3CCN(C)C[C@H]3F)cccc2n1CC(F)(F)F [Compound 838A, N-(4-{[3-(4-{[(3R,4S)-3-fluoro-1-methylpiperidin-4-yl]amino}-1-(2,2,2-trifluoroethyl)-1H-indol-2-yl)prop-2-yn-1-yl]amino}-3-methoxybenzenesulfonyl)acetamide]",+ (+ = 0 μM ≤ SC150 < 0.05 μM)
8,"COc1cc(S(C)(=O)=O)ccc1NCC#Cc1cc2c(NC3CCN(CC(O)COCC(F)(F)F)CC3)cccc2n1CC(F)(F)F (stereo not drawn) [Compound 673A, 1-{4-[(2-{3-[(4-methanesulfonyl-2-methoxyphenyl)amino]prop-1-yn-1-yl}-1-(2,2,2-trifluoroethyl)-1H-indol-4-yl)amino]piperidin-1-yl}-3-(2,2,2-trifluoroethoxy)propan-2-ol]",+ (+ = 0 μM ≤ SC150 < 0.05 μM)
9,"COc1cc(S(C)(=O)=O)ccc1N(C)CC#Cc1cc2c(NC3CCN(C)CC3)cccc2n1CC(F)(F)F [Compound 478A, 2-{3-[(4-methanesulfonyl-2-methoxyphenyl) (methyl)amino]prop-1-yn-1-yl}-N-(1-methylpiperidin-4-yl)-1-(2,2,2-trifluoroethyl)-1H-indol-4-amine]",++++ (++++ = 0.2 μM ≤ SC150 < 1 μM)
10,"COc1cc(S(N)(=O)=O)ccc1NCC#Cc1cc2c(NCC(N)=O)cccc2n1CC(F)(F)F [Compound 3A, 2-[(2-{3-[(2-methoxy-4-sulfamoylphenyl)amino]prop-1-yn-1-yl}-1-(2,2,2-trifluoroethyl)-1H-indol-4-yl)amino]acetamide]",++++ (++++ = 0.2 μM ≤ SC150 < 1 μM)
11,"COC(=O)c1ccc(NCC#Cc2cc3c(N[C@@H]4CCN(CC(N)=O)C[C@@H]4F)cccc3n2CC(F)(F)F)c(OC)c1 [Compound 901A, methyl 4-{[3-(4-{[(3S,4R)-1-(carbamoylmethyl)-3-fluoropiperidin-4-yl]amino}-1-(2,2,2-trifluoroethyl)-1H-indol-2-yl)prop-2-yn-1-yl]amino}-3-methoxybenzoate]",+ (+ = 0 μM ≤ SC150 < 0.05 μM)
12,"CN1CC[C@@H](Nc2cccc3c2cc(C#CCO)n3CC(F)(F)F)[C@@H](F)C1 [Compound 895A, 3-(4-(((3S,4R)-3-fluoro-1-methylpiperidin-4-yl)amino)-1-(2,2,2-trifluoroethyl)-1H-indol-2-yl)prop-2-yn-1-ol]",+++ (+++ = 0.1 μM ≤ SC150 < 0.2 μM)
13,"COc1cc(C(=O)NCC(C)O)ccc1NCC#Cc1cc2c(N[C@@H]3CCN(C)C[C@@H]3F)cccc2n1CC(F)(F)F (stereo partly drawn) [Compound 1057A, 4-{[3-(4-{[(3S,4R)-3-fluoro-1-methylpiperidin-4-yl]amino}-1-(2,2,2-trifluoroethyl)-1H-indol-2-yl)prop-2-yn-1-yl]amino}-N-(2-hydroxypropyl)-3-methoxybenzamide]",+ (+ = 0 μM ≤ SC150 < 0.05 μM)
14,"CNC(=O)c1ccc(NCC#Cc2cc3c(N[C@H]4CC[C@@H](N(C)C)CC4)cccc3n2CC(F)(F)F)c(OCF)c1 [Compound 107A, 3-(fluoromethoxy)-N-methyl-4-{[3-(4-{[(1S,4S)-4-(dimethyl-amino)cyclohexyl]amino}-1-(2,2,2-trifluoro-ethyl)-1H-indol-2-yl)prop-2-yn-1-yl]amino}benzamide]",+ (+ = 0 μM ≤ SC150 < 0.05 μM)
15,"COC(=O)c1ccc(NCC#Cc2cc3c(N[C@H]4CCN(CC(N)=O)C[C@H]4F)cccc3n2CC(F)(F)F)c(OC)c1 [Compound 915A, methyl 4-{[3-(4-{[(3R,4S)-1-(carbamoylmethyl)-3-fluoropiperidin-4-yl]amino}-1-(2,2,2-trifluoroethyl)-1H-indol-2-yl)prop-2-yn-1-yl]amino}-3-methoxybenzoate]",+ (+ = 0 μM ≤ SC150 < 0.05 μM)

# Other lines, results leading:
row,SC150 (concentration of the compound required to increase the DNA binding activity by 50%),SMILES
1,+ (+ = 0 μM ≤ SC150 < 0.05 μM),"COc1cc(S(N)(=O)=O)ccc1NCC#Cc1cc2c(N[C@H]3CC[C@H](N4CCC5(CCO5)CC4)CC3)cccc2n1CC(F)(F)F [Compound 387A, 3-methoxy-4-{[3-(4-{[(1R,4R)-4-{1-oxa-7-azaspiro[3.5]nonan-7-yl}cyclohexyl]amino}-1-(2,2,2-trifluoroethyl)-1H-indol-2-yl)prop-2-yn-1-yl]amino}benzene-1-sulfonamide]"
2,+ (+ = 0 μM ≤ SC150 < 0.05 μM),"CNC(=O)c1ccc(NCC#Cc2cc3c(N[C@H]4CC[C@H](N5CCC(S(C)(=O)=O)CC5)CC4)cccc3n2CC(F)(F)F)c(OC)c1 [Compound 444A, 3-methoxy-N-methyl-4-{[3-(4-{[(1R,4R)-4-(4-methane-sulfonylpiperidin-1-yl)cyclohexyl]amino}-1-(2,2,2-trifluoroethyl)-1H-indol-2-yl)prop-2-yn-1-yl]amino}benzamide]"
3,+ (+ = 0 μM ≤ SC150 < 0.05 μM),COc1cc(S(N)(=O)=O)ccc1NCC#Cc1cc2c(NC3CCN(C(=O)CO)CC3)cccc2n1CC(F)(F)F [Compound 748A]
4,+ (+ = 0 μM ≤ SC150 < 0.05 μM),"CNC(=O)c1ccc(NCC#Cc2cc3c(N[C@H]4CC[C@H](N5CCC(C(F)(F)F)CC5)CC4)cccc3n2CC(F)(F)F)c(OC)c1 [Compound 438A, 3-methoxy-N-methyl-4-{[3-(4-{[(1R,4R)-4-[4-(trifluoro-methyl)piperidin-1-yl]cyclohexyl]amino}-1-(2,2,2-trifluoroethyl)-1H-indol-2-yl)prop-2-yn-1-yl]amino}benzamide]"
5,+ (+ = 0 μM ≤ SC150 < 0.05 μM),"COc1cc(S(N)(=O)=O)ccc1NCC#Cc1cc2c(N[C@H]3CC[C@H](N4CCC(OC)CC4)CC3)cccc2n1CC(F)(F)F [Compound 354A, 3-methoxy-4-{[3-(4-{[(1R,4R)-4-(4-methoxypiperidin-1-yl)cyclohexyl]amino}-1-(2,2,2-trifluoroethyl)-1H-indol-2-yl)prop-2-yn-1-yl]amino}benzene-1-sulfonamide]"
6,++++ (++++ = 0.2 μM ≤ SC150 < 1 μM),"COc1cc(S(C)(=O)=O)ccc1NCC#Cc1cc2c(NC(=O)NC3CCN(C)CC3)cccc2n1CC(F)(F)F [Compound 6A, 3-(2-{3-[(4-methanesulfonyl-2-methoxyphenyl)amino]prop-1-yn-1-yl}-1-(2,2,2-trifluoroethyl)-1H-indol-4-yl)-1-(1-methylpiperidin-4-yl)urea]"
7,+ (+ = 0 μM ≤ SC150 < 0.05 μM),COc1cc(C(=O)N2CCOCC2)ccc1NCC#Cc1cc2c(NC3CCN(C)CC3)cccc2n1CC(F)(F)F [Compound 491A]
8,+ (+ = 0 μM ≤ SC150 < 0.05 μM),"COc1cc(C(=O)N2CC3(CCOCC3)C2)ccc1NCC#Cc1cc2c(NC3CCN(C)CC3)cccc2n1CC(F)(F)F [Compound 511A, 2-{3-[(2-methoxy-4-{7-oxa-2-azaspiro[3.5]nonane-2-carbonyl}phenyl)amino]prop-1-yn-1-yl}-N-(1-methylpiperidin-4-yl)-1-(2,2,2-trifluoroethyl)-1H-indol-4-amine]"
9,++ (++ = 0.05 μM ≤ SC150 < 0.1 μM),"CS(=O)(=O)c1ccc(NCC#Cc2cc3c(N[C@H]4CC[C@H](N5CC6(CCOCC6)C5)CC4)cccc3n2CC(F)(F)F)c(OCC(=O)O)c1 [Compound 311A, 2-(2-((3-(4-(((1R,4R)-4-(7-oxa-2-azaspiro[3.5]nonan-2-yl)cyclohexyl)amino)-1-(2,2,2-trifluoroethyl)-1H-indol-2-yl)prop-2-yn-1-yl)amino)-5-(methylsulfonyl)phenoxy)acetic acid]"
